Source: the supplement of paper PMC11208160

Assay: recombinant UMI read abundance after kanamycin selection (control-corrected) (log10(CPM+1)); higher = more efficient recombination; extreme values may be limits of the assay; sequences stand for … in AGTGCAGAGAAAATCGGCCAGTTTTCTCTGCCTGCAGTCCGCATGCCGTGGGACCCCTTGGGTTCTAACCTGTTGCCTAGATTTATGCAGCGGACTGCCTTTCTCCCAAAGTGATAAACCGG…AGGTTGGTTTCACT; site = the 11-nt donor
Outline: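 The measure is log10(CPM+1) for recombinant UMIs. These were PCR-amplified across the donor–target junction and sequenced after Escherichia coli carrying a donor and donor-binding-loop pair library and a target plasmid with T7-inducible IS621 bridge recombinase was plated on IPTG (0.07 mM) plus kanamycin or unselected. CPM were averaged over two replicates and scaled by control-derived factors.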
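Further: IS621 bridge recombinase in Escherichia coli cells against a fixed T5 target plasmid.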

Compared with “GGTACCTCATGGACCGGTTTTCCCGGTAATCCGTATTTGAG (site GGTACCTCTCT)”, “GGTACCTCATGGACCGGTTTTCCCGGTAATCCGTATTTGTT (site GGTACATCTAA)” is lower in “recombinant UMI read abundance (log10)” value: 0.374 for the first, 0.0159 for the second.

“GGTACCTCATGGACCGGTTTTCCCGGTAATCCGTATTTGTT (site GGTACCTCTAA)” and “GGTACCTCATGGACCGGTTTTCCCGGTAATCCGTATTTGTT (site GGTACGTCTAA)” are within 0.2 log units of each other in “recombinant UMI read abundance (log10)” value: 0.187 for the first, 0.014 for the second.

“GGTACCTCATGGACCGGTTTTCCCGGTAATCCGTATTTGTT (site GGTACTTCTAA)” and “GGTAGAACATGGACCGGTTTTCCCGGTAATCCGTATTTGGC (site GATAGAACTGC)” are within 0.2 log units of each other in “recombinant UMI read abundance (log10)” value: 0.00378 for the first, 0 for the second.

Going from “GGTAGAACATGGACCGGTTTTCCCGGTAATCCGTATTTGGC (site GCTAGAACTGC)” to “GGTAGAACATGGACCGGTTTTCCCGGTAATCCGTATTTGGC (site GGTAGAACTGC)”, the “recombinant UMI read abundance (log10)” value rises from 0 to 0.973.

“GGTAGAACATGGACCGGTTTTCCCGGTAATCCGTATTTGGC (site GTTAGAACTGC)” and “GGTATACCATGGACCGGTTTTCCCGGTAATCCGTATTTGGT (site GGTATACCTAC)” are within 0.2 log units of each other in “recombinant UMI read abundance (log10)” value: 0 for the first, 0.00474 for the second.

“GGTATTTCATGGACCGGTTTTCCCGGTAATCCGTATTTGCC (site GGTATTTCTGG)” and “GGTCCACCATGGACCGGTTTTCCCGGTAATCCGTATTTGCT (site GGTCCACCTAG)” are the same in “recombinant UMI read abundance (log10)” value: 0 for the first, 0 for the second.

Compared with “GGTCGGACATGGACCGGTTTTCCCGGTAATCCGTATTTGCG (site GGTCGGACTCG)”, “GGTCTGTCATGGACCGGTTTTCCCGGTAATCCGTATTTGAA (site GGTCTGTCTTT)” is lower in “recombinant UMI read abundance (log10)” value: 1.29 for the first, 0.0119 for the second.

“GGTCTTACATGGACCGGTTTTCCCGGTAATCCGTATTTGAG (site GGTCTTACTCT)” and “GGTGCACCATGGACCGGTTTTCCCGGTAATCCGTATTTGCA (site GGAGCACCTTG)” are within 0.2 log units of each other in “recombinant UMI read abundance (log10)” value: 0.0687 for the first, 0.00431 for the second.

“GGTGCACCATGGACCGGTTTTCCCGGTAATCCGTATTTGCA (site GGCGCACCTTG)” and “GGTGCACCATGGACCGGTTTTCCCGGTAATCCGTATTTGCA (site GGGGCACCTTG)” are within 0.2 log units of each other in “recombinant UMI read abundance (log10)” value: 0.0224 for the first, 0 for the second.

“GGTGCACCATGGACCGGTTTTCCCGGTAATCCGTATTTGCA (site GGTGCACCTTG)” and “GGTGCGTCATGGACCGGTTTTCCCGGTAATCCGTATTTGTT (site GGTACGTCTAA)” are within 0.2 log units of each other in “recombinant UMI read abundance (log10)” value: 0 for the first, 0.0157 for the second.

Going from “GGTGCGTCATGGACCGGTTTTCCCGGTAATCCGTATTTGTT (site GGTCCGTCTAA)” to “GGTGCGTCATGGACCGGTTTTCCCGGTAATCCGTATTTGTT (site GGTGCGTCTAA)”, the “recombinant UMI read abundance (log10)” value rises from 0.0208 to 0.668.

First: GGTGCGTCATGGACCGGTTTTCCCGGTAATCCGTATTTGTT (site GGTTCGTCTAA)
Second: GGTGCTGCATGGACCGGTTTTCCCGGTAATCCGTATTTGCT (site GGTGCTGCTAG)
The “recombinant UMI read abundance (log10)” value of the first is lower: 0.0103 for the first, 1.53 for the second.

Going from “GGTGTAGCATGGACCGGTTTTCCCGGTAATCCGTATTTGGT (site GGTGTAGCTAC)” to “GGTGTGACATGGACCGGTTTTCCCGGTAATCCGTATTTGTG (site GGTGTGACTCA)”, the “recombinant UMI read abundance (log10)” value rises from 0.0948 to 0.68.

“GGTGTGTCATGGACCGGTTTTCCCGGTAATCCGTATTTGTG (site GGTGTGTCTCA)” and “GGTTAGACATGGACCGGTTTTCCCGGTAATCCGTATTTGCC (site GGATAGACTGG)” are within 0.2 log units of each other in “recombinant UMI read abundance (log10)” value: 1.16 for the first, 1.17 for the second.

“GGTTAGACATGGACCGGTTTTCCCGGTAATCCGTATTTGCC (site GGCTAGACTGG)” and “GGTTAGACATGGACCGGTTTTCCCGGTAATCCGTATTTGCC (site GGGTAGACTGG)” are within 0.2 log units of each other in “recombinant UMI read abundance (log10)” value: 1.32 for the first, 1.27 for the second.

“GGTTAGACATGGACCGGTTTTCCCGGTAATCCGTATTTGCC (site GGTTAGACTGG)” and “GGTTAGTCATGGACCGGTTTTCCCGGTAATCCGTATTTGCC (site GGTTAGTCTGG)” are within 0.2 log units of each other in “recombinant UMI read abundance (log10)” value: 1.9 for the first, 2.06 for the second.

Compared with “GGTTCAACATGGACCGGTTTTCCCGGTAATCCGTATTTGTA (site GGTACAACTTA)”, “GGTTCAACATGGACCGGTTTTCCCGGTAATCCGTATTTGTA (site GGTCCAACTTA)” is higher in “recombinant UMI read abundance (log10)” value: 0.00935 for the first, 0.262 for the second.

“GGTTCAACATGGACCGGTTTTCCCGGTAATCCGTATTTGTA (site GGTGCAACTTA)” and “GGTTCAACATGGACCGGTTTTCCCGGTAATCCGTATTTGTA (site GGTTCAACTTA)” are within 0.2 log units of each other in “recombinant UMI read abundance (log10)” value: 0.00737 for the first, 0.00797 for the second.

First: GGTTCATCATGGACCGGTTTTCCCGGTAATCCGTATTTGCC (site GGTTCATCTGG)
Second: GGTTCATCATGGACCGGTTTTCCCGGTAATCCGTATTTGCT (site CGATCATCTAG)
The “recombinant UMI read abundance (log10)” value of the first is higher: 1.07 for the first, 0 for the second.

Going from “GGTTCATCATGGACCGGTTTTCCCGGTAATCCGTATTTGCT (site GGTTCATCTAG)” to “GGTTGTCCATGGACCGGTTTTCCCGGTAATCCGTATTTGGC (site GGTTGTCCTGC)”, the “recombinant UMI read abundance (log10)” value falls from 1.84 to 0.

Compared with “GGTTTGGCATGGACCGGTTTTCCCGGTAATCCGTATTTGCT (site AGTTTGGCTAG)”, “GGTTTGGCATGGACCGGTTTTCCCGGTAATCCGTATTTGCT (site CGTTTGGCTAG)” is lower in “recombinant UMI read abundance (log10)” value: 0.702 for the first, 0 for the second.

“GGTTTGGCATGGACCGGTTTTCCCGGTAATCCGTATTTGCT (site GGTTTGGCTAG)” and “GGTTTGGCATGGACCGGTTTTCCCGGTAATCCGTATTTGCT (site TGTTTGGCTAG)” are within 0.2 log units of each other in “recombinant UMI read abundance (log10)” value: 0 for the first, 0.00406 for the second.

First: GTAAACGCATGGACCGGTTTTCCCGGTAATCCGTATTTGTT (site GTAAACGCTAA)
Second: GTAACGCCATGGACCGGTTTTCCCGGTAATCCGTATTTGGT (site GTAACGCCTAC)
The “recombinant UMI read abundance (log10)” value of the first is higher: 2.59 for the first, 0.517 for the second.

First: GTAAGTACATGGACCGGTTTTCCCGGTAATCCGTATTTGAC (site GTAAGTACTGT)
Second: GTAAGTACATGGACCGGTTTTCCCGGTAATCCGTATTTGAC (site GTACGTACTGT)
The “recombinant UMI read abundance (log10)” value of the first is higher: 2.96 for the first, 0 for the second.

Going from “GTAAGTACATGGACCGGTTTTCCCGGTAATCCGTATTTGAC (site GTAGGTACTGT)” to “GTAAGTACATGGACCGGTTTTCCCGGTAATCCGTATTTGAC (site GTATGTACTGT)”, the “recombinant UMI read abundance (log10)” value rises from 0.255 to 0.67.

“GTAATATCATGGACCGGTTTTCCCGGTAATCCGTATTTGCA (site GTAATATCTTG)” and “GTAATCACATGGACCGGTTTTCCCGGTAATCCGTATTTGCG (site GTAATCACTCG)” are within 0.2 log units of each other in “recombinant UMI read abundance (log10)” value: 2.6 for the first, 2.48 for the second.
